{"source": "patent US20210177795A1", "about": "(priority 2017, published 2021)", "details": "mouse, in vivo", "note": "Peptide text beside a SMILES is read from it. * marks the point of attachment. X1 = CCCCCCCCCCCCCCCC(=O)OCC(C*)OC(=O)CCCCCCCCCCCCCCC"}
{"smiles": "CCCCCCCCCCCCCCCC(=O)OCC(CSC[C@H](N)C(=O)N[C@@H](CO)C(=O)N[C@@H](CCCCN)C(=O)N[C@@H](CCCCN)C(=O)N[C@@H](CCCCN)C(=O)N[C@@H](CCCCN)C(=O)O)OC(=O)CCCCCCCCCCCCCCC", "note": "(some centres unmarked) [Pam2Cys-SK4, dipalmitoyl-S-glyceryl cysteine-serine-(lysine)4, reference compound] (H-C(X1)SKKKK-OH)", "values": [{"measurement": "weight loss relative to baseline", "value": "little or no weight loss"}]}
{"smiles": "CCCCCCCCCCCCCCCC(=O)OCC(CSC[C@H](N)C(=O)N[C@@H](CO)C(=O)N[C@@H](CO)C(=O)NCCOCCOCCOCCOCCOCCOCCOCCOCCOCCOCCOCCOCCC(=O)NCC(N)=O)OC(=O)CCCCCCCCCCCCCCC", "note": "(some centres unmarked) [INNA-003, PEG-S—S-Pam2Cys]", "values": [{"measurement": "highest weight loss", "value": "4.67%±2.12%"}]}
